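Dose response: 5 concentrations. Exposure: 48 h. Format: 96-well plates. Endpoint: linear interpolation; highest concentration if not reached. GI50: concentration for 50% inhibition of growth. TGI marks complete inhibition of growth.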

What all share (assay): DTP human tumour cell line panel, 48 h
Assay [1] concerns OVCAR-8 ovarian.
Assay [2] concerns COLO 205 colon.
The subject of assay [3] is HCC-2998 colon.
Assay [4] concerns TK-10 renal.
The test system of assay [5] is 786-0 renal.
Assay [6] relates to SF-268 CNS.
Assay [7] deals with EKVX NSCLC.
The subject of assay [8] is K-562 leukemia.
For assay [9], the system named is UACC-257 melanoma.
Assay [10] deals with MDA-MB-231 breast.
Assay [11] concerns HS 578T breast.

For the compound `O=C(NC12CC3CC(CC(C3)C1)C2)C(=O)c1c[nH]c2ccc(Br)cc12`, the TGI in assay [1] is 87.3 µM; in assay [2] it was 45.1 µM; in assay [3] it was greater than 100 µM; in [4] it was 92.6 µM; in [5] it was 20.5 µM; in [6] it was 34.2 µM. For the same compound, the TGI was greater than 100 µM in [7], 47.2 µM in assay [8] and greater than 100 µM in assay [9].

With `COc1cc(N)c2[nH]c3c(C)ccc(C)c3c2c1`, the TGI in assay [1], in assay [2], in assay [3], in [4], in [5] and in assay [6] was greater than 100 µM in each case. The TGI in assay [7], in assay [8] and in assay [9] was greater than 100 µM in each case.

Consider `CCNC(=O)NNc1ncnc2c1c(-c1ccc(Cl)cc1)cn2-c1ccc(C)cc1`, for which the concentration for total growth inhibition (TGI) in [1] was 28.8 µM; in assay [2], 29.9 µM; in [3] it was 31.3 µM; in [4] it was 81 µM; in assay [5], 32.8 µM; in assay [6], 39 µM. For the same compound, the TGI in assay [7] was determined as 65.4 µM; in assay [8], 46.5 µM; in [10] it was 34.8 µM; in assay [9], 35.7 µM.

Consider `CC(=O)NNC(=S)/N=C\c1c(O)c2ccccc2oc1=O`, for which the TGI in [1], in [2], in assay [3], in [4], in assay [5] and in assay [6] was greater than 100 µM throughout. The TGI in assay [11], in [8], in assay [10] and in assay [9] was greater than 100 µM throughout.

With `CCCCOc1c(C(=O)O)cc(Br)cc1C(=O)O`, the TGI in assay [1], in [2], in assay [3], in assay [4], in assay [5] and in assay [6] was greater than 100 µM each time. Moreover, the TGI in [7], in assay [8], in assay [10] and in assay [9] was greater than 100 µM each time.

`N#CNC(=NCc1ccccc1)NCCc1c[nH]c2ccccc12`: the TGI was greater than 100 µM in [1]; greater than 100 µM in assay [2]; greater than 100 µM in assay [3]; greater than 100 µM in assay [4]; 83.5 µM in assay [5]; greater than 100 µM in assay [6]. For the same compound, the TGI in assay [7], in [8] and in assay [9] was greater than 100 µM in each case.

Regarding `COC(=O)CCCC1(CCCC(=O)OC)CCCCCCCCC(CCCC(=O)OC)(CCCC(=O)OC)C(=O)C1=O`, the TGI in assay [1] was greater than 100 µM; in assay [2] it was greater than 100 µM; in [3] it was greater than 100 µM; in [4] it was greater than 100 µM; in assay [5] it was 33.5 µM; in assay [6] it was 55.3 µM. For the same compound, the TGI is greater than 100 µM in [7], greater than 100 µM in assay [11], 37.8 µM in [8] and greater than 100 µM in assay [9].

Take `Cn1cc(-c2nc(-c3c[nH]c4ccncc34)cs2)c2ccccc21`: the GI50 in assay [4] is 1.97 µM; in assay [6] it was 1.79 µM; in [7], 1.64 µM; in assay [11], 1.93 µM; in [10] it was 1.56 µM; in assay [9] it was 1.96 µM. The TGI in [4] came to 3.46 µM; in assay [6], 3.43 µM; in assay [7], 3.36 µM; in [11], 4.4 µM; in assay [10], 3.04 µM; in assay [9], 3.55 µM.

Turning to `Cc1c(OCCCOc2ccc3c(=O)cc(-c4ccccc4)oc3c2C)ccc2c(=O)cc(-c3ccccc3)oc12`, the total growth inhibition concentration (TGI) in assay [1], in assay [4], in assay [5], in [6], in [7] and in assay [8] was greater than 100 µM each time. In assay [9], this compound showed a TGI greater than 100 µM.

With `O=C1CCCCC/C1=C\c1cccc([N+](=O)[O-])c1`, the TGI is greater than 100 µM in [1]; greater than 100 µM in [2]; 44 µM in assay [3]; 97.2 µM in assay [4]; greater than 100 µM in assay [5]; 40.6 µM in [6]. In addition, the concentration for total growth inhibition (TGI) in assay [7] is greater than 100 µM; in [8], greater than 100 µM; in assay [10], 56.4 µM; in assay [9], 54.8 µM.

With `NC(=O)COc1c(Br)cc(Br)cc1Br`, the TGI in [1], in assay [2], in assay [3], in assay [5], in [6] and in assay [7] was greater than 100 µM in each case. Besides, the TGI in assay [8] and in assay [9] was greater than 100 µM each time.

Consider `CC(=O)OC12CC(C(F)(F)F)(C(F)(F)F)OC1(OC(C)=O)CC(C(F)(F)F)(C(F)(F)F)O2` (stereo unspecified), for which the TGI was greater than 100 µM in assay [1]; 25.6 µM in [2]; greater than 100 µM in assay [3]; greater than 100 µM in [4]; 12.4 µM in assay [5]; 6.37 µM in assay [6]. Also, the TGI is greater than 100 µM in assay [11], greater than 100 µM in assay [8], 53.2 µM in [10] and greater than 100 µM in assay [9].

In the case of `O=C(NNS(=O)(=O)c1ccc(Br)cc1)c1ccc(Cl)cc1NC(=O)C12CC3CC(CC(C3)C1)C2`, the TGI in assay [1] stood at 31.9 µM; in assay [2] it was 24.5 µM; in assay [4], 33.2 µM; in assay [5], 40 µM; in assay [6] it was 24.9 µM; in [7], 27.3 µM. For the same compound, the figures for the TGI in assay [11], in assay [8] and in assay [9] were 40.7 µM, 24.4 µM and 26.9 µM, respectively.

With `CC(=O)Oc1c2c(c(OC(C)=O)c3c1n(C(C)=O)c1ccccc1n3C(C)=O)n(C(C)=O)c1ccccc1n2C(C)=O`, the total growth inhibition concentration (TGI) is 18.9 µM in assay [3], 24.9 µM in assay [6], greater than 100 µM in assay [8] and 13 µM in [9].

For `COC1=CC(=O)C2C(C1=O)[C@@H]1c3ccccc3OC(C)(C)[C@H]21` (stereo partly specified), the TGI was 42.2 µM in [1]; 35.1 µM in [2]; greater than 100 µM in [3]; 38.6 µM in assay [4]; 33.6 µM in [5]; 88.6 µM in [6]. The results for the TGI in assay [7], in assay [8] and in [9] were 88.1 µM, 38.1 µM and greater than 100 µM, respectively.

Take `CCOC(=O)CCC(NC(=O)c1ccc(Nc2nc3cc(C(F)(F)F)ccc3nc2C(=O)OCC)cc1)C(=O)OCC` (stereo unspecified): the TGI is 24.6 µM in assay [1]; greater than 100 µM in assay [2]; greater than 100 µM in [3]; 5.5 µM in assay [5]; 28.6 µM in [6]; 38 µM in [7]. The TGI in assay [8] was greater than 100 µM; in assay [10], 34.1 µM; in [9], 34.5 µM.

`N=S(=O)(c1ccccc1)c1ccccc1`: the TGI in [1], in assay [2], in assay [3], in assay [6], in [7] and in assay [8] was greater than 100 µM throughout. This compound also gave a TGI in [9] greater than 100 µM.

With `Nc1nc(Nc2ccc(Cl)cc2)sc1C(=O)c1c[nH]c2ccccc12`, the TGI in assay [2] came out at 18 µM; in assay [3], 24.1 µM; in assay [4], 31.8 µM; in assay [5], 15.6 µM; in assay [6], 60 µM; in [11], 71.3 µM. Moreover, the TGI in assay [8] was greater than 100 µM; in assay [10] it was 35 µM; in assay [9] it was 19.7 µM.

On to `CCCc1n[nH]c(=O)n1N1C(=O)C=CC1=O`, for which the TGI in assay [2], in assay [3], in assay [4], in assay [5], in assay [7] and in assay [8] was greater than 100 µM in each case. The TGI in [10] and in assay [9] was greater than 100 µM each time.

As to `Cc1cc(Br)cc(C)c1NC(=O)C(=O)C(C(=O)c1ccncc1)C1OC(=O)c2ccccc21` (stereo unspecified), the TGI in assay [1], in assay [2], in assay [3], in [4], in [5] and in assay [6] was greater than 100 µM throughout. In addition, the TGI in [7], in assay [8] and in assay [9] was greater than 100 µM throughout.

In the case of `Nc1ccc2nc(Nc3ccc(Cl)c(Cl)c3)cnc2c1`, the TGI was greater than 100 µM in assay [1]; 34.9 µM in assay [2]; 29.8 µM in assay [3]; 60.6 µM in assay [4]; 33.1 µM in assay [5]; 37.8 µM in [6]. For the same compound, the TGI was greater than 100 µM in [7], 82.5 µM in assay [8] and 71 µM in [9].

`COc1cc(S(=O)(=O)Nc2ccc(-c3csc(N4C(=O)C(Cl)C4c4cccc(Oc5ccccc5)c4)n3)cc2)ccc1Cl` (stereo unspecified): the TGI is greater than 100 µM in assay [1]; 45.5 µM in assay [2]; greater than 100 µM in assay [3]; 26.5 µM in assay [5]; 28.3 µM in assay [6]; 52 µM in assay [7]. In addition, the concentration for total growth inhibition (TGI) is greater than 100 µM in assay [11], 91.2 µM in [8] and greater than 100 µM in assay [9].

Turning to `Nc1ncnc2c1sc(=S)n2-c1ccccc1`, the TGI in [1], in assay [2], in assay [3], in [4], in [5] and in assay [6] was greater than 100 µM throughout. In addition, the concentration for total growth inhibition (TGI) in [7], in [8] and in [9] was greater than 100 µM throughout.

With `C[N+](C)=c1ccc2nc3c(ccc4ccccc43)oc-2c1`, the TGI in assay [1] was 26 µM; in assay [2], greater than 57.9 µM; in [3], 37.7 µM; in [4], 31.1 µM; in assay [5], 28.9 µM; in assay [6], 29.7 µM. Besides, the TGI in assay [7] came to 37.3 µM; in [8] it was 9.39 µM; in [9], 16.4 µM.

`CCOP(=O)(OCC)/C(C#N)=C\c1ccsc1`: the TGI in assay [1], in [2], in [3], in assay [4], in [5] and in assay [6] was greater than 100 µM each time. Also, the TGI in assay [7] and in assay [9] was greater than 100 µM each time.

Take `COc1cccc2c1C(=O)c1c(O)c3c(c(O)c1C2=O)C[C@@](O)(C(=O)CN1CCOCC1)C[C@@H]3OC1CC(N)C(O)C(C)O1` (stereo partly specified): the TGI in [1] stood at 89.5 µM; in assay [2], 24.1 µM; in assay [3] it was 23.3 µM; in assay [6] it was 51.3 µM; in assay [7], 55.9 µM; in assay [8], 61.7 µM. Moreover, the GI50 in assay [9] is 11.3 µM.

With `C=C1C2C[C@@H]3OC4CC5O[C@]6(CC5OC4C(C)C3OC(=O)CC3CC[C@@H]4OC5C7OC8C[C@](CCC9CC(=C)[C@H](CCC(C[C@H]1C)O2)O9)(OC7C4O3)O[C@@H]85)C[C@@H]1O[C@@]2(CC(C)[C@@H]3OC(CC(=O)CCO)C(O)C[C@@H]3O2)CC(C)[C@@H]1O6` (stereo partly specified), the TGI in assay [1] is 0.0172 µM; in assay [2], less than 0.001 µM; in assay [3] it was less than 0.001 µM; in assay [5], 1.09 µM; in [6], 1.61 µM; in [9], 1.52 µM.

As to `COc1ccc(C2S/C(=C\c3cccc(OC)c3)C(=O)N2NC(=O)Cc2ccccc2)cc1` (stereo unspecified), the TGI in [1], in assay [2], in [4], in [5], in assay [6] and in assay [8] was greater than 100 µM throughout. The same compound returned a TGI in assay [9] greater than 100 µM.

Turning to `Brc1c2nc3ccccc3nc2n2ccc3ccccc3c12`, the TGI in assay [1], in assay [2], in [3], in assay [4], in assay [5] and in [6] was greater than 100 µM each time. In addition, the TGI in [7], in assay [8] and in assay [9] was greater than 100 µM throughout.

(Values after PubChem BioAssay (NCI).)
